This assay has as its system P388 leukemia ip, CD2F1 mice, survival T/C. Put plainly: NCI In Vivo Anticancer Drug Screen. Data for tumor model P388 Leukemia (intraperitoneal) in CD2F1 (CDF1) mice. As to conditions: endpoint: median survival time, higher = longer survival. Put shortly:
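Mice carrying the transplanted tumor received test compound or vehicle. Survival was recorded in each group, and the value is the treated-group measurement divided by that of the vehicle-treated control group.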

The mark [1] stands for this setting: dose: 25.0 mg/kg/injection, schedule: Q01DX005 (ip), vehicle: Klucel (hydroxypropylcellulose) (HPC).
Where [2] appears, read: dose: 50.0 mg/kg/injection, schedule: Q01DX005 (ip), vehicle: Klucel (hydroxypropylcellulose) (HPC).
Setting [3] is: dose: 100.0 mg/kg/injection, schedule: Q01DX005 (ip), vehicle: Klucel (hydroxypropylcellulose) (HPC).
[4] abbreviates: dose: 200.0 mg/kg/injection, schedule: Q01DX005 (ip), vehicle: Klucel (hydroxypropylcellulose) (HPC).
The mark [5] stands for this setting: dose: 100.0 mg/kg/injection, schedule: Q04DX003 (ip), vehicle: saline with Tween-80.

Where “and” joins values, the source holds several entries; their conditions need not be identical. Identical values can stand only once. Toxic doses and inconclusive results are not listed.

These results are taken from PubChem BioAssay AID330 (DTP/NCI, 2004).

`CN(C)C1C(=O)C(C(=O)NC[N+]23CCO[B-]2(c2ccc(Cl)cc2)OCC3)=C(O)C2(O)C(=O)C3=C(O)c4c(O)cccc4C(C)(O)C3CC12` (stereo not drawn): the T/C by setting is: under setting [1], 111 % of control; under setting [2], 107 % of control and 108 % of control and 110 % of control; under setting [3], 108 % of control (2×) and 114 % of control; under setting [4], 108 % of control and 119 % of control and 120 % of control.

With `CCCSCC`, the T/C by setting is: under setting [5], 104 % of control; (dose: 200.0 mg/kg/injection, schedule: Q04DX003 (ip), vehicle: saline with Tween-80) 100 % of control; (dose: 400.0 mg/kg/injection, schedule: Q04DX003 (ip), vehicle: saline with Tween-80) 100 % of control.

On to `CC1=C(C#N)C(=O)NC(C)C1` (stereo not drawn), for which the T/C runs as follows: under setting [1], 108 % of control; under setting [2], 101 % of control; under setting [3], 108 % of control; (dose: 100.0 mg/kg/injection, schedule: Q01DX005 (ip), vehicle: saline with Tween-80) 98 % of control; under setting [4], 104 % of control; (dose: 200.0 mg/kg/injection, schedule: Q01DX005 (ip), vehicle: saline with Tween-80) 99 % of control. Moreover, the T/C was 102 % of control (dose: 400.0 mg/kg/injection, schedule: Q01DX005 (ip), vehicle: saline with Tween-80); 100 % of control (dose: 500.0 mg/kg/injection, schedule: Q01DX001 (ip), vehicle: saline with Tween-80); 99 % of control (dose: 1000.0 mg/kg/injection, schedule: Q01DX001 (ip), vehicle: saline with Tween-80); 108 % of control (dose: 2000.0 mg/kg/injection, schedule: Q01DX001 (ip), vehicle: saline with Tween-80).

In the case of `O=P(c1ccccc1)(c1ccccc1)c1ccccc1.O=P(c1ccccc1)(c1ccccc1)c1ccccc1.O=P(c1ccccc1)(c1ccccc1)c1ccccc1.O=P(c1ccccc1)(c1ccccc1)c1ccccc1.[Ce+3].[O-][Cl+3]([O-])([O-])O`, the T/C (dose: 50.0 mg/kg/injection, schedule: Q01DX009 (ip), vehicle: saline + Tween-80 + alcohol) is 96 % of control; the T/C (dose: 100.0 mg/kg/injection, schedule: Q01DX009 (ip), vehicle: saline + Tween-80 + alcohol) is 89 % of control; the T/C (dose: 200.0 mg/kg/injection, schedule: Q01DX009 (ip), vehicle: saline + Tween-80 + alcohol) was 87 % of control.

As for `Nc1ccc(N2CCSCC2)nc1`, the T/C runs as follows: (dose: 50.0 mg/kg/injection, schedule: Q01DX009 (ip), vehicle: saline) 104 % of control; (dose: 100.0 mg/kg/injection, schedule: Q01DX009 (ip), vehicle: saline) 101 % of control; (dose: 200.0 mg/kg/injection, schedule: Q01DX009 (ip), vehicle: saline) 96 % of control.

For the compound `CCCCOc1cc(N)nc2ccccc12`, the T/C (dose: 12.5 mg/kg/injection, schedule: Q04DX002 (ip), vehicle: saline with Tween-80) was 95 % of control; the T/C (dose: 25.0 mg/kg/injection, schedule: Q04DX002 (ip), vehicle: saline with Tween-80) was 100 % of control; the T/C (dose: 50.0 mg/kg/injection, schedule: Q04DX002 (ip), vehicle: saline with Tween-80) is 99 % of control.

Regarding `Nc1nc(N)c2nc(Sc3ccc(Cl)cc3)c(-c3ccccc3)nc2n1`, the T/C runs as follows: (dose: 25.0 mg/kg/injection, schedule: Q04DX003 (ip), vehicle: saline with Tween-80) 95 % of control; (dose: 50.0 mg/kg/injection, schedule: Q04DX003 (ip), vehicle: saline with Tween-80) 91 % of control; under setting [5], 93 % of control.

Take `COC1OC2COC(c3ccccc3)OC2C(O)[CH]1[Hg][O]C(C)=O` (stereo not drawn): the T/C runs as follows: (dose: 0.1 mg/kg/injection, schedule: Q01DX009 (ip), vehicle: distilled water + Tween-80) 100 % of control; (dose: 0.19 mg/kg/injection, schedule: Q01DX009 (ip), vehicle: distilled water + Tween-80) 96 % of control; (dose: 0.38 mg/kg/injection, schedule: Q01DX009 (ip), vehicle: distilled water + Tween-80) 107 % of control; (dose: 0.78 mg/kg/injection, schedule: Q01DX009 (ip), vehicle: distilled water + Tween-80) 99 % of control; (dose: 1.56 mg/kg/injection, schedule: Q01DX009 (ip), vehicle: distilled water + Tween-80) 91 % of control; (dose: 3.13 mg/kg/injection, schedule: Q01DX009 (ip), vehicle: distilled water + Tween-80) 104 % of control. The T/C was 96 % of control (dose: 6.25 mg/kg/injection, schedule: Q01DX009 (ip), vehicle: distilled water + Tween-80) and 110 % of control (dose: 12.5 mg/kg/injection, schedule: Q01DX009 (ip), vehicle: distilled water + Tween-80).

As for `CC(C)=CCCC(C)(O)C1CC=C(C)CC1` (stereo not drawn), the T/C reads like this: (dose: 20.0 mg/kg/injection, schedule: Q01DX005 (ip), vehicle: Klucel (hydroxypropylcellulose) (HPC)) 95 % of control; (dose: 40.0 mg/kg/injection, schedule: Q01DX005 (ip), vehicle: Klucel (hydroxypropylcellulose) (HPC)) 95 % of control; (dose: 80.0 mg/kg/injection, schedule: Q01DX005 (ip), vehicle: Klucel (hydroxypropylcellulose) (HPC)) 98 % of control; (dose: 160.0 mg/kg/injection, schedule: Q01DX005 (ip), vehicle: Klucel (hydroxypropylcellulose) (HPC)) 98 % of control.

Consider `CC(=O)OC1C2OC3C=C(C)CCC3(CO)C(C)(C1O)C21CO1` (stereo not drawn), for which the T/C is, setting by setting: (dose: 0.5 mg/kg/injection, schedule: Q01DX009 (ip), vehicle: saline) 95 % of control; (dose: 1.0 mg/kg/injection, schedule: Q01DX009 (ip), vehicle: saline) 96 % of control; (dose: 2.0 mg/kg/injection, schedule: Q01DX009 (ip), vehicle: saline) 106 % of control; (dose: 4.0 mg/kg/injection, schedule: Q01DX009 (ip), vehicle: saline) 112 % of control.

Regarding `CC(C)/[N+]([O-])=N\O`, the T/C was 101 % of control (dose: 3.0 mg/kg/injection, schedule: Q01DX005 (ip), vehicle: Klucel (hydroxypropylcellulose) (HPC)); 98 % of control (dose: 6.0 mg/kg/injection, schedule: Q01DX005 (ip), vehicle: Klucel (hydroxypropylcellulose) (HPC)); 100 % of control (dose: 12.0 mg/kg/injection, schedule: Q01DX005 (ip), vehicle: Klucel (hydroxypropylcellulose) (HPC)); 98 % of control (dose: 24.0 mg/kg/injection, schedule: Q01DX005 (ip), vehicle: Klucel (hydroxypropylcellulose) (HPC)).

For `Cc1cc(C(C(N)=O)c2ccccc2)ccc1N(CCCl)CCCl` (stereo not drawn), the T/C (dose: 9.37 mg/kg/injection, schedule: Q01DX009 (ip), vehicle: other) is 168 % of control; the T/C (dose: 18.75 mg/kg/injection, schedule: Q01DX009 (ip), vehicle: other) was 195 % of control; the T/C (dose: 25.0 mg/kg/injection, schedule: Q04DX003 (ip), vehicle: Klucel (hydroxypropylcellulose) (HPC)) was 184 % of control; the T/C (dose: 50.0 mg/kg/injection, schedule: Q04DX003 (ip), vehicle: Klucel (hydroxypropylcellulose) (HPC)) is 176 % of control; the T/C (dose: 100.0 mg/kg/injection, schedule: Q04DX003 (ip), vehicle: Klucel (hydroxypropylcellulose) (HPC)) was 97 % of control.

On to `O=[N+]([O-])c1c(N2CCN(CCO)CC2)ccc2nonc12`, for which the T/C (dose: 50.0 mg/kg/injection, schedule: Q01DX009 (ip), vehicle: suspension in saline) is 100 % of control and the T/C (dose: 100.0 mg/kg/injection, schedule: Q01DX009 (ip), vehicle: suspension in saline) is 108 % of control.

`CN1CC2(c3ccccc3)CN(C)CC(c3ccccc3)(C1)C2=O`: the T/C (dose: 6.25 mg/kg/injection, schedule: Q01DX009 (ip), vehicle: saline with Tween-80) was 100 % of control and the T/C (dose: 12.5 mg/kg/injection, schedule: Q01DX009 (ip), vehicle: saline with Tween-80) was 86 % of control.
